The values that follow come from US10799540B2, “Faecalibacterium longum and application thereof” (BGI SHENZHEN, priority 2016, dated 2020).

Experiment [1] has as its system T2D model mice. Put plainly: Body weight change of T2D model mice treated by gavage for 2 months. The settings on record: intragastric treatment. The class given is in vivo, C57bL/6 mice.
Experiment [2] concerns T2D model mice. As to the kind of experiment: Fasting blood glucose (FBG) in T2D model mice. Type of experiment: in vivo, C57bL/6 mice.
For experiment [3], the system named is T2D model mice. Put plainly: Glucose tolerance (OGTT) in T2D model mice. The class given is in vivo, C57bL/6 mice. The settings on record: before sacrifice.
Experiment [4] deals with T2D model mice. As to the kind of experiment: Serum blood lipids in T2D model mice at end of experiment. The settings on record: after 2 months of treatment.

Each structure is given as a SMILES string. Marks after values point to notes of the source that are not given here.

With `CN(C)C(=N)N=C(N)N` [Metformin, metformin], the body weight in the experiment with T2D model mice [1] (1 week) was 21.54 g; in the experiment with T2D model mice [1] (3 weeks), 23.42 g; with T2D model mice [1] (5 weeks), 25.23 g; in the experiment on T2D model mice [1] (7 weeks) it was 26.6 g; in the experiment with T2D model mice [1] (9 weeks), 27.49* g. The fasting blood glucose is recorded as 14.6 mmol/L in the experiment with T2D model mice [2] (week five); 9.8** mmol/L with T2D model mice [2] (week nine); 16.7 mmol/L with T2D model mice [2] (week one); 12.1* mmol/L in the experiment with T2D model mice [2] (week seven); 15.8 mmol/L in the experiment with T2D model mice [2] (week three). The “blood glucose in glucose tolerance test (OGTT)” value with T2D model mice [3] (0 min after glucose gavage) is 9.2 mmol/L; in the experiment on T2D model mice [3] (30 min after glucose gavage), 19.5 mmol/L; in the experiment with T2D model mice [3] (60 min after glucose gavage) it was 16.1 mmol/L; with T2D model mice [3] (90 min after glucose gavage), 10.9* mmol/L; with T2D model mice [3] (120 min after glucose gavage), 10.1* mmol/L; with T2D model mice [3] (120 min after glucose gavage, listed as metformin) it was 9.8 mmol/L. Further, the “HDLC (high-density lipoprotein)” value in the experiment with T2D model mice [4] is listed as 3.023* mmol/L. Besides, the “LDLC (low density lipoprotein)” value with T2D model mice [4] is given as 1.533* mmol/L. The “TC (total cholesterol)” value in the experiment on T2D model mice [4] worked out at 5.923 mmol/L. Moreover, the “TG (triglyceride)” value with T2D model mice [4] stood at 1.565 mmol/L.
